# Test results from patent US20100273650A1, “Fungicidal Mixtures Comprising a Substituted 3-Hydroxymethylpyridine and a Further Fungicidal Compound” (BASF SE, priority 2007, published 2010).
# Where two headings read alike, the source gives them in different places.
# Experiments:
# Format in all cases: cell-based
# [1] = system: Septoria tritici; assay: Activity against leaf blotch on wheat caused by Septoria tritici in the microtiter test (Septtr); conditions: single active compound, 405 nm, day 7 after inoculation
# [2] = system: Phytophthora infestans; assay: microbe, parasite or virus in culture; conditions: 168 h, read-out: Observed efficacy
# [3] = system: Pyricularia oryzae; conditions: single active compound, 405 nm, 7 days after inoculation
molecule,measurement,setting,value
"CC(Cc1ccc(C(C)(C)C)cc1)CN1C[C@@H](C)O[C@@H](C)C1 (mixture of isomers) [Fenpropimorph, (RS)-cis-4-[3-(4-tert-butylphenyl)-2-methylpropyl]-2,6-dimethylmorpholine]",Observed efficacy,[1]; 1 ppm,9%
"CCCCCCCCc1c(CC)nc2ncnn2c1N [5-ethyl-6-octyl-[1,2,4]triazolo[1,5-a]pyrimidine-7-ylamine]",inhibition of growth at 0.25 ppm,[2],29%
"O=C1C2CC=CCC2C(=O)N1SC(Cl)(Cl)Cl (stereo not drawn) [Captan, 2-trichloromethylsulfanyl-3a,4,7,7a-tetrahydroisoindole-1,3-dione]",inhibition of growth at 1 ppm,[2],26%
"COC(=O)Nc1nc2ccccc2[nH]1 [Carbendazim, methyl (1H-benzoimidazol-2-yl)-carbamate]",Observed efficacy,[3]; 0.25 ppm,24%
"N#Cc1c(Cl)c(Cl)c(Cl)c(C#N)c1Cl [Chlorothalonil, 2,4,5,6-tetrachloroisophthalonitrile]",inhibition of growth at 0.25 ppm,[2],10%
"CNC(=O)/C(=N/OC)c1ccccc1COc1cc(C)ccc1C [Dimoxystrobin, (E)-2-(methoxyimino)-N-methyl-2-[α-(2,5-xylyloxy)-o-tolyl]acetamide]",inhibition of growth at 0.25 ppm,[2],42%
"OC(c1cccnc1)c1c(-c2ccc(Cl)cc2)csc1-c1ccc(Cl)cc1 (stereo not drawn) [I.8, 2,4-Bis-(4-chlorophenyl)-3-[(3-pyridyl)hydroxymethyl]thiophene]",Observed efficacy,[3]; 0.25 ppm,2%
same,Observed efficacy,[3]; 1 ppm,0%
same,Observed efficacy,[1]; 0.063 ppm,4%
same,Observed efficacy,[1]; 0.25 ppm,10%
same,inhibition of growth at 0.063 ppm,[2],2%
same,inhibition of growth at 0.25 ppm,[2],1%
same,inhibition of growth at 1 ppm,[2],4%
same,inhibition of growth at 4 ppm,[2],19%
"OC(c1cccnc1)c1c(-c2ccc(F)cc2F)csc1-c1ccc(F)cc1F (stereo not drawn) [I.16, 2,4-Bis-(2,4-Difluorophenyl)-3-[(3-pyridyl)hydroxymethyl]thiophene]",Observed efficacy,[3]; 1 ppm,0%
same,inhibition of growth at 1 ppm,[2],0%
"Cc1ccc(C(C)NC(=O)[C@@H](NC(=O)OC(C)C)C(C)C)cc1 (stereo partly drawn) [Iprovalicarb, isopropyl [(1S)-2-methyl-1-(1-p-tolylethylcarbamoyl)propyl]carbamate]",inhibition of growth at 1 ppm,[2],66%
"OC(Cc1ccccc1Cl)(Cn1nc[nH]c1=S)C1(Cl)CC1 (stereo not drawn) [Prothioconazole, 2-[2-(1-chlorocyclopropyl)-3-(2-chlorophenyl)-2-hydroxypropyl]-2,4-dihydro-[1,2,4]triazole-3-thione]",inhibition of growth at 16 ppm,[2],22%
"CC(C)(C)C(O)(CCc1ccc(Cl)cc1)Cn1cncn1 (stereo not drawn) [Tebuconazol, 1-(4-chlorophenyl)-4,4-dimethyl-3-[1,2,4]triazol-1-ylmethylpentan-3-ol]",Observed efficacy,[1]; 0.25 ppm,63%
"CCCCCCCCCCCCCN1CC(C)OC(C)C1 (stereo not drawn) [Tridemorph, 2,6-dimethyl-4-tridecylmorpholine]",Observed efficacy,[1]; 1 ppm,3%
zinc propylenebis(dithiocarbamate) polymer [Propineb],Observed efficacy,[3]; 1 ppm,23%
